In patent publication US8420144B2, “Kokumi-imparting agent, method of using, and compositions containing same” (Ajinomoto Co., Inc., priority 2005, dated 2013):

Molecular target: T1, human calcium receptor (Homo sapiens, UniProt P41180)
T1 construct: expressed in transfected cells; host or cells: Xenopus laevis oocytes microinjected with cRNA; gene amplified by PCR from human kidney cDNA (Clontech)
T1 sequence (P41180 20-1078): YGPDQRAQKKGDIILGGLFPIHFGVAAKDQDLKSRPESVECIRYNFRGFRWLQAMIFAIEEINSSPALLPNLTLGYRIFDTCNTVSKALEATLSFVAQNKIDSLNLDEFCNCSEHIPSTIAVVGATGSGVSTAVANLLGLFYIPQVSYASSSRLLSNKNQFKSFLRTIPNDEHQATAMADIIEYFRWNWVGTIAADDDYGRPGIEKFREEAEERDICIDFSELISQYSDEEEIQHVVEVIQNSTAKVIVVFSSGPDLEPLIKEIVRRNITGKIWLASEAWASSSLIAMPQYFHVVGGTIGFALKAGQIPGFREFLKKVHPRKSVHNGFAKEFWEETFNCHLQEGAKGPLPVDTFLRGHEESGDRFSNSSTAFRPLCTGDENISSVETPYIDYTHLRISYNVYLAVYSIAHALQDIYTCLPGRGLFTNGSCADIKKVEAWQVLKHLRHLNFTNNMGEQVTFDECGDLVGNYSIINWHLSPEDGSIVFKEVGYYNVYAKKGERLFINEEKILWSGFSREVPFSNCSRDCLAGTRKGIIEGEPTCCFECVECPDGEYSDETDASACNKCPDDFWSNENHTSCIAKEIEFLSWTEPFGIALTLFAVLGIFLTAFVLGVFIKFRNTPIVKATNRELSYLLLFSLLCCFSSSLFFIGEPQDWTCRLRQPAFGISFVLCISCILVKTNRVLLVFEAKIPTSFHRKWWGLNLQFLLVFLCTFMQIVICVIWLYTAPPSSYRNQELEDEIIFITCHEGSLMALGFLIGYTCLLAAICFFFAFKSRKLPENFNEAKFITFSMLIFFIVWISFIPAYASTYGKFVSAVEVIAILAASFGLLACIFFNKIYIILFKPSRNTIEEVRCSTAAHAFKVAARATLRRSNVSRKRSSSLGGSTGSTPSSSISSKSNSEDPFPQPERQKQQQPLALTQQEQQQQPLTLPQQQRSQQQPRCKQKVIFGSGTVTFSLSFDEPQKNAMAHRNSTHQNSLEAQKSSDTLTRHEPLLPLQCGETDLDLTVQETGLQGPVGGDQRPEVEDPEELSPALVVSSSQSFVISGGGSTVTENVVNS
Test: Calcium receptor activation activity: Ca ion concentration-dependent Cl ionic current in Xenopus laevis oocyte expression system
Assay type: cell-based
Experimental: To evaluate calcium receptor activation activity, a Ca ion concentration-dependent Cl ionic current measuring method using a Xenopus laevis oocyte expression system was used. If each activator is added to Xenopus laevis oocytes expressing the calcium receptor, intracellular Ca ions increase. Then, the Ca ion concentration-dependent Cl channel opens, and the intracellular current value changes as an ionic current. By measuring the change in this intracellular current value, the presence or absence of calcium receptor activation activity can be determined.
Specifically, the abdomen of Xenopus laevis was opened, and an egg batch was taken out and treated with a 1% collagenase solution at 20° C. for 2 hours to obtain individual oocytes. Into the oocytes, 50 nl of 1 μg/μl receptor cRNA or 50 nl of sterilized water per oocyte was introduced by using a micro glass capillary, and the oocytes were cultured at 18° C. for 2 or 3 days. For the culture, a solution obtained by adding 2 mM pyruvic acid, 10 U/ml of penicillin, and 10 μg/ml of streptomycin to the solution in Example 2 was used. After the culture, a test solution was added to the oocytes containing either the cRNA or sterilized water. Electrophysiological measurement was performed by using an amplifier, Geneclamp500 (Axon), and recording software, AxoScope 9.0 (Axon). The oocytes were voltage-clamped at −70 mV by the double electrode voltage clamp method, and the intracellular current was measured via the Ca ion concentration-dependent Cl ion channel. The maximum value of the intracellular current was considered as the response current value.
Calcium receptor activation activity of L-amino acids was evaluated by using the method described in Example 13. That is, oocytes containing either cRNA of the calcium receptor or sterilized water were prepared, and voltage-clamped at −70 mV by the double electrode voltage clamp method. To the voltage-clamped oocytes, alanine (10 mM), arginine (10 mM), asparagine (10 mM), aspartic acid (10 mM), cysteine (10 mM), glutamine (10 mM), glutamic acid (10 mM), glycine (10 mM), histidine (10 mM), isoleucine (10 mM), leucine (10 mM), lysine (10 mM), methionine (10 mM), phenylalanine (10 mM), proline (10 mM), serine (10 mM), threonine (10 mM), tryptophan (10 mM), tyrosine (10 mM), valine (10 mM), ornithine (10 mM), taurine (10 mM), or hydroxyproline (10 mM) was added, and Ca ion concentration-dependent Cl response current was measured. […] As for the aforementioned amino acids, the activation activity was reported in Proc. Natl. Acad. Sci. USA, 2000 Apr. 25, 97(9):4814-9.
Calcium receptor activation activity of D-cysteine was evaluated by using the method described in Example 13. That is, oocytes containing either cRNA of the calcium receptor or sterilized water were prepared, and voltage-clamped at −70 mV by the double electrode voltage clamp method. To the voltage-clamped oocytes, D-cysteine (10 mM), L-cysteine (10 mM), D-tryptophan (10 mM), or L-tryptophan (10 mM) was added, and Ca ion concentration-dependent Cl response current was measured.
Calcium receptor activation activity of peptides was evaluated by using the method described in Example 13. That is, oocytes containing either cRNA of the calcium receptor or sterilized water were prepared, and voltage-clamped at −70 mV by the double electrode voltage clamp method.
Calcium receptor activation activity of peptides was evaluated in the same manner as that of Example 17. Each of the peptides shown in Table 2 was added to voltage-clamped oocytes at 1000 μM, 300 μM, 100 μM, 30 μM, 10 μM, 3 μM, 1 μM, 0.3 μM, and 0.1 μM, and Ca ion concentration-dependent Cl response current was measured.

SMILES | Activity (lowest concentration for which current was detected) (added at 1000, 300, 100, 30, 10, 3, 1, 0.3 and 0.1 μM) | calcium receptor activation activity (Ca ion concentration-dependent Cl response current) (50 μM peptide, oocytes voltage-clamped at −70 mV)
CC(C)[C@H](NC(=O)CC[C@H](N)C(=O)O)C(=O)NCC(=O)O [γ-Glu-Val-Gly] | 0.1 µM | 
N[C@@H](CCC(=O)N[C@@H](CS)C(=O)NCC(=O)O)C(=O)O [γ-Glu-Cys-Gly, reference compound] |  | definitive calcium receptor activation activity
